The values that follow come from patent US7745450B2, “Pyrazolo[4,3-d]pyrimidines, processes for their preparation and methods for therapy” (Institute of Experimental Botany, priority 2002, dated 2010).

The subject of assay [1] is myeloid leukemia KG1 cell line. Kind of assay: Cell proliferation of KG1, flow cytometric cell count. Type of assay: cell-based, human. The conditions noted are these: 96 hours; for IC50: read-out: KG1 IC50. Here is the method:
(§1) Cell lines: Human leukemic cell lines were obtained from the American Type Culture Collection (ATCC, Rockville, Md., USA). They were cultured in Iscove's Modified Dulbecco's Medium (IMDM) supplemented with 10% heat inactivated fetal calf serum (FCS), 200 U/ml penicillin, 200 μg/ml streptomycin and 1 μg/ml amphotericin B. Cells were cultured in a 5% CO2-95% air fully humidified incubator. For effects on clonogenic output, 1000 cells/well were plated in duplicate in methylcellulose (0.9%), supplemented with 20% FCS for 14 days.
(§2) Cells were plated at 10000 per well in 200 μl IMDM medium and incubated with 0-50 μM of the novel compounds (Tab 8), by addition of drug directly to the culture medium and incubated at 37° C. for 96 hours (Tab 8). Absolute cell number was determined by addition of a known concentration Fluoresbrite microspheres (FITC) (Polysciences, Inc.). The absolute number of cells/well was calculated as: {(total number of beads added/well)/(number of beads measured)×(number of measured cells in the gate of interest)}. All analyses were performed with a FACScan (BD), using CELLQuest software (Becton Dickinson).
(§3) Response of the myeloid leukemia KG1 and T-lymphocyte leukemia Molt3 cell lines to the cytostatic effect of the novel compounds was determined using the above-mentioned standardized bead suspension that was used to determine the absolute cell number by flow cytometric (FCM) measurement. Cells were grown in the presence of increasing concentration of the novel compounds.
To determine reversibility of the effects of the novel compounds, cells were plated at 10000 per well and exposed to 0-50 μM of the compounds for the time indicated, followed by washing in phosphate-buffered saline (PBS) (Life Technologies) and reseeded into drug-free medium for 7 additional days. An identical set of cells was plated and exposed to the drugs for 7 additional days. After 7 days (168 hours), the relative cell number was assayed by flow cytometry.

For assay [2], the system named is PHA-stimulated lymphocytes (PBMC). In words: Proliferation of PHA-stimulated lymphocytes (PBMC), flow cytometric cell count. Type of assay: cell-based, human. The settings on record: 96 hours, IL-2. As for the experimental part:
Peripheral blood mononuclear cells (PBMC): Human peripheral blood mononuclear cells were isolated by density gradient (Ficoll-Hypaque) (LSM, ICN Biomedicals Inc.). PBMC were stimulated with 5 μg/ml phytohemaglutinin A (PHA) (Sigma) during 24-48 hours in IMDM supplemented with 10% FCS at 37° C. After washing off the PHA, PBMC were incubated with interleukin-2 (IL-2) (10 U/ml) (Genzyme).
as §2
PHA-stimulated lymphocytes (PBMC) were tested for their cytotoxicity as one of the normal counterparts of the cell lines. Cells were grown for 96 hours in the presence of IL-2 and different concentrations of the novel compounds and cell number was counted on the flow cytometer.

Assay [3] addresses cdk1/cyclin B (CDC2) (Homo sapiens, UniProt P06493). Kind of assay: CDK inhibition assay, cdk1/cyclin B (CDC2) kinase, histone phosphorylation. Type of assay: biochemical. Put shortly: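 Human cdk1/cyclin B activity measured with 1 mg/ml histone substrate, 15 μM ATP plus [γ-32P]ATP, in HEPES pH 7.4 buffer with 10 mM MgCl2. Phosphorylation quantified by phosphorimaging; activity expressed as % of maximum, IC50 from dose-response curves by graphic analysis.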

Assay [4] concerns T-lymphocyte leukemia Molt3 cell line. Kind of assay: Cell proliferation of Molt3, flow cytometric cell count. The class given is cell-based, human. The settings on record: 96 hours. Here is the method:
as §1, §2, §3

The subject of assay [5] is normal human lymphocytes. Kind of assay: Immunosuppressive activity, 3H-thymidine incorporation in concanavalin A activated lymphocytes. Type of assay: cell-based. The settings on record: Lymphocyte, 72 hours, [3H]-TdR, read-out: Human lymphocytes ED50. As for the experimental part:
Human heparinized peripheral blood was obtained from healthy volunteers by cubital vein punction. The blood was diluted in PBS (1:3) and mononuclear cells were separated by centrifugation in Ficoll-Hypaque density gradient (Pharmacia, 1.077 g/ml) at 2200 rpm for 30 minutes. Following centrifugation, lymphocytes were washed in PBS and resuspended in cell culture medium (RMPI 1640, 2 mM glutamine, 100 U/ml penicillin, 100 μg/ml streptomycin, 10% fetal calf serum and sodium bicarbonate).
The cells were diluted at target density of 1.100.000 cells/ml were added by pipette (180 μl) into 96/well microtiter plates. Four-fold dilutions of the intended test concentration were added at time zero in 20 μl aliquots to the microtiter plate wells. Usually, test compound was evaluated at six 4-fold dilutions. In routine testing, the highest well concentration was 266.7 μM. All drug concentrations were examined in duplicates. All wells with exception of unstimulated controls were activated with 50 μl of concanavalin A (25 μg/ml). Incubations of cells with test compounds lasted for 72 hours at 37° C., in 5% CO2 atmosphere and 100% humidity. At the end of incubation period, the cells were assayed by using the [^3H]-TdR:
Cell cultures were incubated with 0.5 μCi (20 μl of stock solution […]) per well for 6 hours at 37° C. and 5% CO2. The automated cell harvester was used to lyse cells in water and adsorb the DNA onto glass-fiber filters in the format of microtiter plate. The DNA incorporated [^3H]-TdR was retained on the filter while unincorporated material passes through. The filters were dried at room temperature overnight, sealed into a sample bag with 10-12 ml of scintillant. The amount of [^3H]-TdR present in each filter (in cpm) was determined by scintillation counting in a Betaplate liquid scintillation counter. The effective dose of immunosuppressant (ED) was calculated using the following equation: ED=(CCPMdrug exposed well/mean CCPMcontrol wells)×100%.

Assay [6] concerns human diploid fibroblasts (HCA cells). In words: Inhibition of senescence, β-galactosidase staining of fibroblasts. Type of assay: cell-based. The conditions noted are these: for SENESCENT CELLS (%) HCA25: HCA cells passage 25, β-galactosidase staining; for SENESCENT CELLS (%) HCA45: HCA cells passage 45, β-galactosidase staining; for SENESCENT CELLS (%) HCA80: HCA cells passage 80, β-galactosidase staining. Here is the method: In this example, human diploid fibroblasts (HCA cells of various passage levels: passage 25—designated HCA25; passage 45—designated HCA45; passage 80—designated HCA80) were stained for β-galactosidase activity. The medium present on cultured cells was removed, the cells were washed twice in […], and fixed in 2-3 ml of fixing solution comprised of a 2% formaldehyde and 0.2% glutaraldehyde in PBS. The cells were incubated at room temperature for 5 minutes, then washed twice with PBS. The cells were then incubated at 37° C. […] In this experiment, senescent cells, but not other cells were stained blue due to the action of β-galactosidase on the substrate (FIG. 9).

For assay [7], the system named is CEM (human lymphoblastoid leukemia). Kind of assay: In vitro cytotoxic activity, Calcein AM. The conditions noted are these: Homo sapiens, 72 h, three days. Type of assay: cell-based. The method in brief:
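CEM cells were seeded at 10^4/well in DMEM + 10% FBS and exposed to six concentrations from 200 to 0.2 μM, in triplicate, for 3 days at 37 °C and 5% CO2. Viable cells were then measured by Calcein AM fluorescence after 1 h loading.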

In assay [8] the target is MMK1 protein kinase (Vicia faba, UniProt A0AAV1B7B8). In words: MMK1 protein kinase activity. Type of assay: biochemical. The method in brief:
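Plant CDK was purified from extracts on p13^suc1-beads or by anti-cdc2a-MS immunopurification, and MMK1 was immunopurified from Vicia faba extracts. Kinase activity was read as radioactivity incorporated into histone H1 or myelin basic protein, quantified by phosphoimager.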

For assay [9], the system named is B16. In words: In vitro cytotoxic activity, Calcein AM. The class given is cell-based. The conditions noted are these: Mus musculus, B16, 72 h, three days.

Where two headings read alike, the source gives them in different places. Some results are limits rather than exact numbers.

Chain of cdk1/cyclin B (CDC2) (P06493 whole entry, species assumed): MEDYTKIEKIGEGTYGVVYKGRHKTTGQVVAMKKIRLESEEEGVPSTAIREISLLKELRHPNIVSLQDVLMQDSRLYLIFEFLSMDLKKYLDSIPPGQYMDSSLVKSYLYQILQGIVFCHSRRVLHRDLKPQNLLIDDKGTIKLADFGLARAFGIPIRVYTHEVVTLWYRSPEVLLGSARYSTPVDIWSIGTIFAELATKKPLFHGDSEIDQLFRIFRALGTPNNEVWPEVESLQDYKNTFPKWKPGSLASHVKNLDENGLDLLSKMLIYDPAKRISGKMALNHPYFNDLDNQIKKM
Chain of cdk1/cyclin B (CDC2) (P14635 whole entry partner, species assumed): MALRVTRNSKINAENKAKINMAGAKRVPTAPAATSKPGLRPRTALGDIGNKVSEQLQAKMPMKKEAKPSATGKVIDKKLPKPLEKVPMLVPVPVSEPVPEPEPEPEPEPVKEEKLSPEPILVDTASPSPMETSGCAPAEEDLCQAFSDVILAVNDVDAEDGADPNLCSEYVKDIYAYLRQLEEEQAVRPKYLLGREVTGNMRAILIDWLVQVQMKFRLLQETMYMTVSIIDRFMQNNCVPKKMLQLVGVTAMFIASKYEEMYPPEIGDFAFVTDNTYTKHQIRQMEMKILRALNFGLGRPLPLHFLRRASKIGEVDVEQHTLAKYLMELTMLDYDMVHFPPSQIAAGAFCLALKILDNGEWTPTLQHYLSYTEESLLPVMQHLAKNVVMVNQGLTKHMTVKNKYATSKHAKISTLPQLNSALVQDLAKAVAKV
Chain of MMK1 protein kinase (A0AAV1B7B8 1-394): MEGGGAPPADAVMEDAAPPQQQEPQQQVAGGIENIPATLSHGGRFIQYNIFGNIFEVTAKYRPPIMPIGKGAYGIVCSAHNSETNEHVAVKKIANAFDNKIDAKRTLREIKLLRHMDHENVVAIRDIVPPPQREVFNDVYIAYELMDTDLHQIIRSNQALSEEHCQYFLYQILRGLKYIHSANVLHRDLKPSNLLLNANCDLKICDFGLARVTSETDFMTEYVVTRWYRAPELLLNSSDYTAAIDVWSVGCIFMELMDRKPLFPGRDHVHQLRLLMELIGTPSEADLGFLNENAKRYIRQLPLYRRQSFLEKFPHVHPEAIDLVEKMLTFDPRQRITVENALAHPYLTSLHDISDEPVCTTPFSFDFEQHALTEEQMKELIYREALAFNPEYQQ

In the case of `CC(C)c1n[nH]c2c(N[C@@H](CO)c3ccccc3)nc(NC[C@H](O)CO)nc12` [Compound 158, 5-(2,3-dihydroxypropylamino)-7-[(R,S)-(1-phenyl-2-hydroxyethyl)amino]-3-isopropylpyrazolo[4,3-d]pyrimidine], the IC50 was 12 ± 1 µM in [1], 10 ± 1 µM in assay [2], greater than 50 µM in assay [3] (cell free system (Table 8)) and 13.4 ± 1.4 µM in assay [4].
In the case of `CCC(CO)Nc1nc(NCc2ccc(O)c(O)c2)c2[nH]nc(C(C)C)c2n1` (stereo not drawn) [Compound 47, 5-(1-ethyl-2-hydroxyethylamino)-7-(3,4-dihydroxybenzyl)amino-3-isopropylpyrazolo[4,3-d]pyrimidine], the IC50 in assay [1] (Homo sapiens, KG-1) came to 8 ± 1 µM; in [2] (Homo sapiens, Lymphocyte), 3 ± 1.2 µM; in assay [3] (cell free system (Table 8)) it was 1.2 µM; in assay [4] (Homo sapiens, MOLT-3), 10 ± 1 µM.
Turning to “5-(3-hydroxypropylamino)-7[N-(3,4-dihydroxybenzyl-N-methyl]amino-3-isopropylpyrazolo[4,3-d]pyrimidine [Compound 50]”, the IC50 in assay [1] came out at 21 µM; in [2], 15 ± 7.3 µM; in assay [4], 21 µM.
For `CC(C)c1n[nH]c2c(Nc3cccc(Cl)c3)nc(NCCO)nc12`, the EC50 in assay [5] turned out to be 17 µM. Further, in assay [6], the “SENESCENT CELLS (%) HCA25” value amounted to 4%, the “SENESCENT CELLS (%) HCA45” value stood at 4% and the “SENESCENT CELLS (%) HCA80” value worked out at 38%. Moreover, the GI50 in assay [7] was 18 µM. This molecule also had an IC50 in assay [8] of 0.28 µM. For the same molecule, the GI50 in assay [9] was 29 µM.
Take “5-(5-cyanopentyl)-7-[(R,S)-(1-phenyl-2-hydroxyethyl)amino]-9-isopropylpurine [Compound 123]”: the IC50 in [1] was determined as 42 ± 4.8 µM; in assay [2] it was 33 ± 4.4 µM; in assay [3] (cell free system (Table 8)), 33 µM; in assay [4], 42.5 ± 6 µM.
For `CCC(CO)Nc1nc(NCc2ccc(O)c(O)c2)c2ncn(C(C)C)c2n1` (stereo not drawn) [Compound 243, 2-(1-ethyl-2-hydroxyethylamino)-6(3,4-dihydroxybenzylamino)-9-isopropylpurine], the IC50 came to 9 ± 6.6 µM in assay [2] (Homo sapiens, Lymphocyte) and 9 ± 1.2 µM in assay [4] (Homo sapiens, MOLT-3).
In the case of `CC(C)c1n[nH]c2c(SCc3ccccc3)nc(NCCCO)nc12` [Compound 145, 5-(3-hydroxypropylamino)-7-benzylthio-3-isopropylpyrazolo[4,3-d]pyrimidine], the IC50 in assay [1] (Homo sapiens, KG-1) was 42 ± 5 µM; in [2] (Homo sapiens, Lymphocyte) it was 18 ± 1.6 µM; in [3] (cell free system (Table 8)), greater than 50 µM; in [4] (Homo sapiens, MOLT-3) it was 19 ± 2 µM.
For “5-(3-hydroxypropylamino)-7-[N-(3,4-dihydroxybenzyl-N-methyl]amino-isopropylpyrazolo[4,3-d]pyrimidine [Compound 42]”, the IC50 in assay [1] is 10.7 ± 0.3 µM; in assay [2] it was 5.9 ± 2.9 µM; in assay [3] (cell free system (Table 8)), 2.6 µM; in assay [4], 13 ± 2.1 µM.
For `Nc1cc(CNc2ncnc3cn[nH]c23)ccc1Cl` [H / 3-amino-4-chlorobenzylamine / H], in assay [6], the “SENESCENT CELLS (%) HCA25” value amounted to 4%, the “SENESCENT CELLS (%) HCA45” value worked out at 5% and the “SENESCENT CELLS (%) HCA80” value was 21%.
In the case of “5-(hexylamino)-7-[N-(3,4-dihydroxybenzyl-N-methyl]amino-isopropylpyrazolo[4,3-d]pyrimidine [Compound 41]”, the IC50 in [1] was 15.3 ± 2.4 µM; in assay [2] it was 10 ± 2 µM; in [3] (cell free system (Table 8)) it was 1 µM; in assay [4] it was 14 ± 3.2 µM.
`CC(C)c1n[nH]c2c(NCc3ccccc3)nc(NCCCO)nc12` [Compound 7, 5-(3-hydroxypropylamino)-7-benzylamino-3-isopropylpyrazolo[4,3-d]pyrimidine]: the half-maximal inhibitory concentration (IC50) was 25 ± 4.4 µM in assay [1] (Homo sapiens, KG-1); 9 ± 0.2 µM in assay [2] (Homo sapiens, Lymphocyte); 0.2 µM in assay [3]; 1 µM in assay [3] (cell free system (Table 8)); 24 ± 2.2 µM in assay [4] (Homo sapiens, MOLT-3).
With `CC(C)c1n[nH]c2c(NC(CO)c3ccccc3)nc(N3CCOCC3)nc12` (stereo not drawn) [Compound 85, 5-(morpholino)-7-(1-phenyl-2-hydroxyethylamino)-3-isopropylpyrazolo[4,3-d]pyrimidine], the IC50 in assay [1] (Homo sapiens, KG-1) was found to be 28 ± 1.5 µM; in [2] (Homo sapiens, Lymphocyte), 20 ± 7.7 µM; in [3] (cell free system (Table 8)), 5.5 µM; in assay [4] (Homo sapiens, MOLT-3) it was 20 ± 1.3 µM.
In the case of “5-(2-hydroxyethylthio)-671-phenyl-2-hydroxyethylamino-3-isopropylpyrazolo[4,3-d]pyrimidine [Compound 96]”, the “Effectiveness on KG1 compared with normal PBMC” value in [1] was “significantly more effective on KG1 than on normal PBMC”. Also, the IC50 was determined as 9 ± 0.4 µM in assay [1], 8 ± 0.5 µM in assay [2], 5.8 µM in [3] (cell free system (Table 8)) and 10 ± 1.2 µM in [4].
Turning to `CC(C)c1n[nH]c2c(Nc3cccc(Cl)c3)nc(NC3CCC(N)CC3)nc12` (stereo not drawn), the EC50 in [5] turned out to be 0.5 µM. In addition, in assay [6], the “SENESCENT CELLS (%) HCA25” value amounted to 4%, the “SENESCENT CELLS (%) HCA45” value is on record as 5% and the “SENESCENT CELLS (%) HCA80” value came out at 35%. In addition, the GI50 in assay [7] is 0.5 µM. This molecule also registered an IC50 in assay [8] of 0.012 µM. For the same molecule, the GI50 in assay [9] is 1.3 µM.
